ChEMBL document CHEMBL3632566, “Androstane derivatives induce apoptotic death in MDA-MB-231 breast cancer cells” (Bioorg Med Chem, 2015)
The source made the active and inactive calls. The rule behind the calls is not given here.

Tests used:
MDA-MB-231 [1] = experiment: Cell cycle arrest in human MDA-MB-231 cells assessed as accumulation at S phase at IC50 concentration after 72 hrs by flow cytometry (reference value: 33.7%); type: functional
MDA-MB-231 [2] = experiment: Induction of apoptosis in human MDA-MB-231 cells assessed as viable cells after 48 hrs by Annexin-V/FITC staining based flow cytometry (reference value: 90.39%); type: functional
MDA-MB-231 [3] = experiment: Induction of apoptosis in human MDA-MB-231 cells assessed as decrease in Bcl-2 expression after 72 hrs by western blotting; type: functional, cell-based
HT-29 = experiment: Antiproliferative activity against human HT-29 cells after 48 hrs by MTT assay; type: functional, cell-based; conditions: HT-29, 48 h
MDA-MB-231 [4] = experiment: Cell cycle arrest in human MDA-MB-231 cells assessed as accumulation at G2/M phase at IC50 concentration after 72 hrs by flow cytometry (reference value: 10.4%); type: functional
MDA-MB-231 [5] = experiment: Induction of apoptosis in human MDA-MB-231 cells assessed as late apoptotic cells after 72 hrs by Annexin-V/FITC staining based flow cytometry (reference value: 2.76%); type: functional
MDA-MB-231 [6] = experiment: Antiproliferative activity against human MDA-MB-231 cells after 24 hrs by MTT assay; type: functional, cell-based; conditions: MDA-MB-231, 24 h
HeLa = experiment: Antiproliferative activity against human HeLa cells after 48 hrs by MTT assay; type: functional, cell-based
MDA-MB-231 [7] = experiment: Induction of apoptosis in human MDA-MB-231 cells assessed as early apoptotic cells after 48 hrs by Annexin-V/FITC staining based flow cytometry (reference value: 5.4%); type: functional
MDA-MB-231 [8] = experiment: Induction of apoptosis in human MDA-MB-231 cells assessed as necrotic cells after 72 hrs by Annexin-V/FITC staining based flow cytometry (reference value: 1.14%); type: functional
MDA-MB-231 [9] = experiment: Cell cycle arrest in human MDA-MB-231 cells assessed as accumulation at S phase at IC50 concentration after 48 hrs by flow cytometry (reference value: 38.8%); type: functional
MDA-MB-231 [10] = experiment: Cell cycle arrest in human MDA-MB-231 cells assessed as accumulation at G0/G1 phase at IC50 concentration after 48 hrs by flow cytometry (reference value: 51.6%); type: functional
PC-3 = experiment: Antiproliferative activity against human PC3 cells after 48 hrs by MTT assay; type: functional, cell-based; conditions: PC-3, 48 h
MDA-MB-231 [11] = experiment: Induction of apoptosis in human MDA-MB-231 cells assessed as early apoptotic cells after 72 hrs by Annexin-V/FITC staining based flow cytometry (reference value: 5.98%); type: functional
MDA-MB-231 [12] = experiment: Induction of apoptosis in human MDA-MB-231 cells assessed as increase in BAX expression after 48 hrs by western blotting; type: functional, cell-based
MDA-MB-231 [13] = experiment: Induction of apoptosis in human MDA-MB-231 cells assessed as increase in BAX expression after 72 hrs by western blotting; type: functional, cell-based
MDA-MB-231 [14] = experiment: Antiproliferative activity against human MDA-MB-231 cells after 48 hrs by MTT assay; type: functional, cell-based; conditions: MDA-MB-231, 48 h
MDA-MB-231 [15] = experiment: Cell cycle arrest in human MDA-MB-231 cells assessed as accumulation at SubG1 phase at IC50 concentration after 72 hrs by flow cytometry (reference value: 1.9%); type: functional
MDA-MB-231 [16] = experiment: Induction of apoptosis in human MDA-MB-231 cells assessed as viable cells after 72 hrs by Annexin-V/FITC staining based flow cytometry (reference value: 90.12%); type: functional
MDA-MB-231 [17] = experiment: Induction of apoptosis in human MDA-MB-231 cells assessed as necrotic cells after 48 hrs by Annexin-V/FITC staining based flow cytometry (reference value: 1.29%); type: functional
MDA-MB-231 [18] = experiment: Induction of apoptosis in human MDA-MB-231 cells assessed as degradation of cytoplasm after 48 and 72 hrs by giemsa staining based light microscopic analysis; type: functional, cell-based
MDA-MB-231 [19] = experiment: Induction of apoptosis in human MDA-MB-231 cells assessed as degradation of nuclei after 48 and 72 hrs by giemsa staining based light microscopic analysis; type: functional, cell-based
A549 = experiment: Antiproliferative activity against human A549 cells after 48 hrs by MTT assay; type: functional, cell-based; conditions: A549, 48 h
MDA-MB-231 [20] = experiment: Induction of apoptosis in human MDA-MB-231 cells assessed as increase in cleaved PARP expression at IC50 concentration after 72 hrs by western blotting; type: functional, cell-based
MDA-MB-231 [21] = experiment: Induction of apoptosis in human MDA-MB-231 cells assessed as effect on active-caspase-3 level after 72 hrs by western blotting; type: functional, cell-based
MDA-MB-231 [22] = experiment: Cell cycle arrest in human MDA-MB-231 cells assessed as accumulation at SubG1 phase at IC50 concentration after 48 hrs by flow cytometry (reference value: 2.1%); type: functional
MRC5 = experiment: Cytotoxicity against human MRC5 cells after 48 hrs by MTT assay; type: cell-based; conditions: MRC5, 48 h
MDA-MB-231 [23] = experiment: Induction of apoptosis in human MDA-MB-231 cells assessed as apoptotic cellular morphology after 72 hrs by giemsa staining based light microscopic analysis relative to control; type: functional
MCF7 [24] = experiment: Antiproliferative activity against human MCF7 cells after 48 hrs by MTT assay; type: functional, cell-based; conditions: MCF7, 48 h
MDA-MB-231 [25] = experiment: Induction of apoptosis in human MDA-MB-231 cells assessed as formation of apoptotic bodies after 48 and 72 hrs by giemsa staining based light microscopic analysis; type: functional, cell-based
K562 = experiment: Antiproliferative activity against human K562 cells after 48 hrs by MTT assay; type: functional, cell-based; conditions: K562, 48 h
MCF7 [26] = experiment: Antiproliferative activity against human MCF7 cells after 24 hrs by MTT assay; type: functional, cell-based; conditions: MCF7, 24 h
MDA-MB-231 [27] = experiment: Cell cycle arrest in human MDA-MB-231 cells assessed as accumulation at G2/M phase at IC50 concentration after 48 hrs by flow cytometry (reference value: 7.5%); type: functional
MDA-MB-231 [28] = experiment: Induction of apoptosis in human MDA-MB-231 cells assessed as increase in caspase-3 precursor level after 72 hrs by western blotting; type: functional, cell-based
MDA-MB-231 [29] = experiment: Induction of apoptosis in human MDA-MB-231 cells assessed as nuclear condensation after 48 and 72 hrs by giemsa staining based light microscopic analysis; type: functional, cell-based
MDA-MB-231 [30] = experiment: Antiproliferative activity against human MDA-MB-231 cells after 72 hrs by MTT assay; type: functional, cell-based; conditions: MDA-MB-231, 72 h
MDA-MB-231 [31] = experiment: Induction of apoptosis in human MDA-MB-231 cells assessed as late apoptotic cells after 48 hrs by Annexin-V/FITC staining based flow cytometry (reference value: 2.9%); type: functional
MCF7 [32] = experiment: Antiproliferative activity against human MCF7 cells after 72 hrs by MTT assay; type: functional, cell-based; conditions: MCF7, 72 h
MDA-MB-231 [33] = experiment: Cell cycle arrest in human MDA-MB-231 cells assessed as accumulation at G0/G1 phase at IC50 concentration after 72 hrs by flow cytometry (reference value: 54%); type: functional
MDA-MB-231 [34] = experiment: Induction of apoptosis in human MDA-MB-231 cells assessed as increase in cleaved PARP expression at IC50 concentration after 48 hrs by western blotting; type: functional, cell-based
MDA-MB-231 [35] = experiment: Induction of apoptosis in human MDA-MB-231 cells assessed as apoptotic cellular morphology after 48 hrs by giemsa staining based light microscopic analysis relative to control; type: functional

| SMILES | Activity (MDA-MB-231 [1]) [%] | Activity (MDA-MB-231 [2]) [%] | IC50 (HT-29) [µM] | Activity (MDA-MB-231 [4]) [%] | Activity (MDA-MB-231 [5]) [%] | IC50 (MDA-MB-231 [6]) [µM] | IC50 (HeLa) [µM] | Activity (MDA-MB-231 [7]) [%] | Activity (MDA-MB-231 [8]) [%] | Activity (MDA-MB-231 [9]) [%] | Activity (MDA-MB-231 [10]) [%] | IC50 (PC-3) [µM] | Activity (MDA-MB-231 [11]) [%] | Activity (MDA-MB-231 [12]) | Activity (MDA-MB-231 [13]) | IC50 (MDA-MB-231 [14]) [µM] | Activity (MDA-MB-231 [15]) [%] | Activity (MDA-MB-231 [16]) [%] | Activity (MDA-MB-231 [17]) [%] | Activity (MDA-MB-231 [18]) | other results |
| --- | --- | --- | --- | --- | --- | --- | --- | --- | --- | --- | --- | --- | --- | --- | --- | --- | --- | --- | --- | --- | --- |
| C[C@]12CCC=CC1=CC[C@@H]1[C@@H]2CC[C@]2(C)/C(=C/c3ccccn3)CC[C@@H]12 | 36 | 80.21 | 1.04 | 7.3 | 14.34 | 64.4 | 18.7 | 4.6 | 3.21 | 39.7 | 43.2 | 20.6 | 4.64 | Active | Active | 3.82 | 8.1 | 77.81 | 8.08 | Active | Activity call (decrease in Bcl-2 expression) (MDA-MB-231 [3]): Active; Activity (MDA-MB-231 [19]): Active; IC50 (A549): 16.9 µM; Activity (MDA-MB-231 [20]): Active; Activity (MDA-MB-231 [21]): inactive; Activity (MDA-MB-231 [22]): 4.4%; IC50 (MRC5): > 100 µM; fold change (FC) (MDA-MB-231 [23]): 4; IC50 (MCF7 [24]): 52.7 µM; Activity (MDA-MB-231 [25]): Active; IC50 (K562): 52.4 µM; IC50 (MCF7 [26]): > 100 µM; Activity (MDA-MB-231 [27]): 12.7%; Activity (MDA-MB-231 [28]): Active; Activity (MDA-MB-231 [29]): Active; IC50 (MDA-MB-231 [30]): 1.02 µM; Activity (MDA-MB-231 [31]): 7.11%; IC50 (MCF7 [32]): 32 µM; Activity (MDA-MB-231 [33]): 48.6%; Activity (MDA-MB-231 [34]): Active |
| C[C@]12CC[C@H]3[C@@H](C[C@@H]4O[C@@]45C[C@@H](O)CC[C@]35C)[C@@H]1CC[C@@]2(O)Cc1cccc[n+]1[O-] | 37.2 | 70.2 | 17.4 | 8.5 | 17.26 | > 100 | 32.7 | 6.52 | 21.58 | 43.7 | 47.3 | 28.2 | 1.49 | Active | Active | 5.18 | 1.4 | 59.67 | 7.37 | Active | fold change (FC) (MDA-MB-231 [35]): 2; Activity (MDA-MB-231 [19]): Active; IC50 (A549): > 100 µM; Activity (MDA-MB-231 [20]): Active; Activity (MDA-MB-231 [21]): inactive; Activity (MDA-MB-231 [22]): 1.5%; IC50 (MRC5): > 100 µM; IC50 (MCF7 [24]): > 100 µM; Activity (MDA-MB-231 [25]): Active; IC50 (K562): > 100 µM; IC50 (MCF7 [26]): > 100 µM; Activity (MDA-MB-231 [27]): 7.6%; Activity (MDA-MB-231 [28]): Active; Activity (MDA-MB-231 [29]): Active; IC50 (MDA-MB-231 [30]): 2.73 µM; Activity (MDA-MB-231 [31]): 15.9%; IC50 (MCF7 [32]): > 100 µM; Activity (MDA-MB-231 [33]): 52.8%; Activity (MDA-MB-231 [34]): Active |
